Experimental data from patent US9926529B2, “Derivation of neural stem cells and dopaminergic neurons from human pluripotent stem cells” (International Stem Cell Corporation, priority 2012, dated 2018).
Like-named read-outs stand apart in the source and are kept apart here.

Experiments:
Format in all cases: cell-based, human
hPSC-NSCs [1] = experiment: RT-PCR expression of dopamine neuron genes in hPSC-NSCs treated with small molecule hits; details: Homo sapiens, Neuron, 336 h, hPSC-NSCs primed 7 days with Purmorphamine and FGF8, small molecule 2.5 μM for two weeks
Procedure, shortened: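 hPSC-NSCs pre-patterned 7 days with Purmorphamine (2 μM) plus FGF8 (100 ng/mL) in NB medium, then treated with compounds at 2.5 μM final for two weeks. Total RNA reverse-transcribed; SYBR Green qPCR for dopaminergic/neuronal markers, relative quantification against a standard curve, normalized to PPIG; mean±s.e.m.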

hPSC-NSCs [2] = experiment: Percentage of TH positive cells produced by chemical treatment; details: chemical treatment 2.5 μM for two weeks
Description: The method specifically involved treating both hESC-H9-NSCs (Invitrogen) and hPSC-NSCs with Purmorphamine (2 μM) and FGF8 (100 ng/mL) in NB medium [NeuroBasal medium, 1× GlutaMAX, 1× N2/B27 Supplement (Invitrogen)] for 7 days. After 7 days of Purmorphamine and FGF8 treatment, the NSCs were dissociated with Accutase (Sigma) and plated 20,000 cells/mL into Matrigel coated 96 well plates and treated with small molecule library (Torcris 1120 Biologically Active Compounds) at 2.5 μM final concentration for two weeks (FIG. 6A). Two weeks after treatment with small molecules, all wells were visually observed and scored based on neurite density and dopamine release. For measuring neurite density, cells were fixed with 4% paraformaldehyde and phase contrast images were acquired using Cellavista Cell Imaging System (Roche Applied Science) from randomly selected fields. Neurite density was measured using the Cellavista density software image processing program. Each experimental condition was done in duplicate wells, and at least three independent experiments were conducted to acquire the final results.
Conditioned medium from the top neurite inducers (Table 1) (wells containing the highest density of neurites compare to control 0.1% DMSO treated) were collected and analyzed using a dopamine ELISA assay (Cosmo Bio). Conditioned medium was collected from samples containing 50,000 cells per well and centrifuged at 3000 RPM to remove cell debris. Supernatant was then collected and analyzed for quantitative determination of dopamine using a commercial dopamine ELISA assay kit (CusaCosmo Bio). Data analysis was performed using the microtiter plate reader (BIO-TEK Synergy 2). The results presented are from three independent experiments (n=3) and represented as mean±standard error of mean (s.e.m.) and statistical analysis was performed using the two-tailed Student's t-test with a confidence level of 95% (α=0.05) with statistical significance of P<0.05. Additionally, total RNA from each well were collected and analyze by RT-PCR for expression of TuJ1, MAP2, TH, GRK2, EN1, DAT, AADC, PAX2, NURR1, PITX3 and LMX1B from hPSC-NSCs (Table 2). […] Analysis of the ELISA data indicated the top small molecule neurite inducers produced higher levels of dopamine than control non-treated cells (1.5 ng/mL). […] The percentages of TH positive cells produced by chemical treatment with Kenpaullone (33%), Guggulsterone (35%), Kynurenic Acid (19%), Immedthridine Dihydrobromide (21%), and Dimaprit Dihydrochloride (18%) were higher than 15% of TH positive cells obtained from hPSC-NSCs differentiated for ≥1 month using a standard dopaminergic differentiation medium (BDNF 20 ng/mL, GDNF 20 ng/mL, cAMP 200 μM, Abscorbic Acid 200 μM, TGFβ3 2 ng/mL and DAPT).

hPSC-NSCs [3] = experiment: Dopamine ELISA of conditioned medium (dopamine release)
Description: To obtain DA neurons, hPSC-NSC were first primed into DA precursors with 100 ng/mL FGF8 and 2 μM Purmorphamine for 7 days and then used to screen for small molecules that induce terminal dopaminergic differentiation (FIG. 6A). The DA precursors were plated at 2000 cells/well of a 96-well plate and treated with a small molecule library (Tocris 1120 biologically active compounds) at 2.5 μM for two weeks (FIG. 6A). Dopaminergic differentiation was assessed by neurite outgrowth and ELISA analysis for dopamine release (FIG. 6A). From this screen, guggulsterone (GS), a naturally occurring steroid, was identified among the best inducers of dopaminergic differentiation (FIG. 6A). After 30 days of differentiation, GS-treated neurons appeared mature with elaborate neurite extensions. […] Spontaneous action potentials were recorded in whole cultures of GS-treated neurons using a microelectrode array (MEA) system (FIG. 6J). […]
Conditioned medium from the top neurite inducers (Table 1) (wells containing the highest density of neurites compare to control 0.1% DMSO treated) were collected and analyzed using a dopamine ELISA assay (Cosmo Bio). […] Supernatant was then collected and analyzed for quantitative determination of dopamine using a commercial dopamine ELISA assay kit (CusaCosmo Bio). Data analysis was performed using the microtiter plate reader (BIO-TEK Synergy 2). […]

C/C=C1\C(=O)C[C@H]2[C@@H]3CCC4=CC(=O)CC[C@]4(C)[C@H]3CC[C@]12C [Guggulsterone]
fold induction at 2.5 µM (hPSC-NSCs [1]; read-out: DDC (AADC) expression by RT-PCR): 9.82
fold induction at 2.5 µM (hPSC-NSCs [1]; read-out: EN1 expression by RT-PCR): 10
fold induction at 2.5 µM (hPSC-NSCs [1]; read-out: KCNJ6 expression by RT-PCR): 0.01
fold induction at 2.5 µM (hPSC-NSCs [1]; read-out: LMX1B expression by RT-PCR): 6.45
fold induction at 2.5 µM (hPSC-NSCs [1]; read-out: MAP2 expression by RT-PCR): 9.05
fold induction at 2.5 µM (hPSC-NSCs [1]; read-out: NR4A2 (NURR1) expression by RT-PCR): 0.53
fold induction at 2.5 µM (hPSC-NSCs [1]; read-out: PITX3 expression by RT-PCR): 0.48
fold induction at 2.5 µM (hPSC-NSCs [1]; read-out: Pax2 expression by RT-PCR): 0.03
fold induction at 2.5 µM (hPSC-NSCs [1]; read-out: SLC6A3 (DAT) expression by RT-PCR): 1.03
fold induction at 2.5 µM (hPSC-NSCs [1]; read-out: TH1 expression by RT-PCR): 10.6
fold induction at 2.5 µM (hPSC-NSCs [1]; read-out: Tubb3 expression by RT-PCR): 6.83
percentage of TH positive cells (hPSC-NSCs [2]): 35%
increase in dopamine secretion compared to control cells (ELISA) (hPSC-NSCs [3]; control: NSCs 1 week FGF8 and purmorphamine, 2 weeks 0.1% DMSO instead of GS): five-fold increase
levels of Dopamine spontaneous release (hPSC-NSCs [3]; treated hPSC-NSCs, compared among top hits): highest levels
